These results are taken from US20260183321A1, “TREATMENT OF CORONAVIRUS INFECTIONS WITH ANTIMICROBIAL PHOSPHOLIPID COMPOSITIONS” (NATIONAL JEWISH HEALTH, priority 2022, published 2026).

Experiment [1] concerns B1.1.529 (omicron variant). The class given is cell-based, SARS-CoV-2. The conditions noted are these: healthy control subjects n=4, m.o.i. 0.1, 48 Hr; 10 mg/ml POPG, 4 mg/ml PI, prophylactic.
For experiment [2], the system named is SARS-CoV-2 variant, B.1.351. Format: cell-based.
Experiment [3] relates to B.1.617.2 (delta variant). Format: cell-based, SARS-CoV-2. As to conditions: healthy control subjects n=4, m.o.i. 0.1, 48 hrs; 10 mg/ml POPG, 4 mg/ml PI, prophylactic.

Take phosphatidylinositol [PI]: the “B.1.1.529 (Omicron variant) replication” value in experiment [1] was “inhibited”. The “attenuation of B.1.351 replication” value in experiment [2] is 70%. Further, the “B.1.617.2 (delta variant) replication” value in experiment [3] is “inhibited”.
For `CCCCCCCC/C=C\CCCCCCCC(=O)O[C@H](COC(=O)CCCCCCCCCCCCCCC)COP(=O)(O)OCC(O)CO` (stereo partly drawn) [POPG, palmitoyl-oleoyl-phosphatidylglycerol], the “B.1.1.529 (Omicron variant) replication” value in experiment [1] is “inhibited”. In experiment [2], the “attenuation of B.1.351 replication” value is on record as 50%. The “B.1.617.2 (delta variant) replication” value in experiment [3] was “inhibited”.
